Values joined by “and” are separate entries in the source; they are usually repeats but may differ in a detail not shown here. Identical values can stand only once. Where no end group is shown, it is not given here.
Columns and labels:
[1] = test system: crosslinked PEP-1–β-Gal complex; assay: Peptide microarray binding of crosslinked PEP-1–β-Gal complex; settings: negative control selection
Method: Firstly, 20 μM PEP-1 (sequence of “RVFKRKRWLHVSRYYFGSC”) was incubated with 30 nM β-Gal for 20 min, and then 0.5% formaldehyde was added to the peptide/enzyme mixture. It was then incubated for another 20 min in order to crosslink the peptide with enzyme. The entire mixture was then diluted by 100 × in phosphate buffer to bring the overall peptide concentration as low as 200 nM.

[2] = test system: inhibited PEP-1–β-Gal complex; assay: Recovery of PEP-1 inhibited enzyme activity; type: biochemical; settings: 320 μM NEG added, incubated another 20 min; 1 nM β-Gal preincubated with PEP-1 for 20 min
Method: (§1) Solution-based enzyme assays were performed on SpectraMax M5 96 well plate readers (Molecular Device, Sunnyvale, CA, USA) as described previously. Simply explained, peptides were first incubated with enzyme for 20 min, and then the substrate solution was added into the wells to measure the enzyme activity. At least three replicates per peptide were included. The β-gal-catalyzed hydrolysis of RBG was fluorescently monitored at 590 nm (resorufin) with the excitation at 540 nm. For a typical assay, ~0.3 nM or 1 nM β-Gal was incubated with peptides and 100 μM RBG substrate in pH 7.4, 10 mM potassium phosphate buffer with 100 μM MgCl2 at 25 °C. The reaction rate was determined by the initial velocity of the linear reaction. The percentage of reduced/inhibited enzyme activity was calculated as below: Percentage of reduced activity=(1−Inhibited activity/Noninhibited activity)×100%
For recovery of PEP-1 inhibited enzyme activity, 1 nM β-Gal was first incubated with PEP-1 for 20 min for inhibiting activity, and then NEG peptide was added to the solution and incubated for another 20 min before the activity assay.

[3] = biological target: T1, β-galactosidase (β-Gal) (Escherichia coli, UniProt P00722); settings: negative control selection
T1 sequence (P00722 2-1024): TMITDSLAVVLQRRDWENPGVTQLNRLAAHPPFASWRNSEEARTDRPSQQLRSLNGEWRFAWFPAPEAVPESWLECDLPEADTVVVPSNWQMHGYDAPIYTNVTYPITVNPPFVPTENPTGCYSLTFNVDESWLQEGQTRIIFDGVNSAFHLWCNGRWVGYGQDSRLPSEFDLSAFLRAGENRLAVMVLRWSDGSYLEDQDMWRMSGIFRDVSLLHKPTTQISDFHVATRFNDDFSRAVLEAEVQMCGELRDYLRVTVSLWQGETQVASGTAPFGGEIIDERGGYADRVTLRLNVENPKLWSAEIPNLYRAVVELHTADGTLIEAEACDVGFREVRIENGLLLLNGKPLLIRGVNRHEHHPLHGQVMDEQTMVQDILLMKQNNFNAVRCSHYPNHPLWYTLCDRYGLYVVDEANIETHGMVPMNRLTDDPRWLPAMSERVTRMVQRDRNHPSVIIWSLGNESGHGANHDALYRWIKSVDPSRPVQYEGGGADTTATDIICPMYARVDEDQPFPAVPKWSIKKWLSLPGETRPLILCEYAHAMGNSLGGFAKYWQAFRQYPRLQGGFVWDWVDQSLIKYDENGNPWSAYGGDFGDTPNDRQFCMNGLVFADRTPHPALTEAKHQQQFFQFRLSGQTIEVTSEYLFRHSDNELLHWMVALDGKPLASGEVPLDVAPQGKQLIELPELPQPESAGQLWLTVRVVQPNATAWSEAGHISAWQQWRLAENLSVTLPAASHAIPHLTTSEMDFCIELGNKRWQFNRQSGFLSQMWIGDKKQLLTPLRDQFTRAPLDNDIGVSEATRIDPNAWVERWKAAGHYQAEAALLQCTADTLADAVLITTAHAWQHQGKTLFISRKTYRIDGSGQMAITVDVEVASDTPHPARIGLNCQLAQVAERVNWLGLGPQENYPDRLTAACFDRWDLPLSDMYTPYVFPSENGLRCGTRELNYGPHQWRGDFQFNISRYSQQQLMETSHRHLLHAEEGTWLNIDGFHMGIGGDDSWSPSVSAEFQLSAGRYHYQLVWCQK
Description: Microarrays of 10,000 20-mer peptides were produced by Arizona State University as previously reported [14, 17]. […] Each polypeptide was 20 residues in length, with 17 positions randomly chosen from a set of 19 amino acids (excluding cysteine). The C-terminal 3 positions of each peptide was a glycine–serine–cysteine (GSC) linker, which was used for conjugating peptides to amino-silane surfaces via a maleimide linker, sulfosuccinimidyl 4-(N-maleimidomethyl)cyclohexane-1-carboxylate (Sulfo-SMCC; Pierce, Rockford, IL, USA). The array printing was performed by using a Telechem Nanoprint60 (Arrayit, Sunnyvale, CA, USA) hat spotted approximately 500 pL of 1 mg/mL peptide per feature on glass slides with 48 Telechem series SMP2-style 946 titanium pins (Arrayit).
Binding of enzymes on the microarray was performed as previously described [17, 18]. […] Then, the array was incubated with a solution containing 5 nM Alexa 647-labeled β-Gal or PEP-1–β-Gal complex for two hours, allowing the enzyme to bind with peptides on the array surface. After washing off unbound enzymes, the array was read by a standard array reader (PerkinElmer, Waltham, MA, USA) with color scanning using 647 nm laser lines.

[4] = biological target: T1, β-galactosidase (β-Gal); assay: biochemical; parameters: purchased Sigma (St. Louis, MO, USA); settings: for reduction of enzyme activity, combination with PEP-1: 100 μM NEW peptide + 2 μM PEP-1; for reduction of enzyme activity, NEW peptide alone: 100 μM peptide by itself, pH 7.4 10 mM potassium phosphate, 100 μM MgCl2, 25 °C, at least three replicates
Method: as §1, with “activity)×100% […]” for “activity)×100%”
Figure S1. Titration of IC 50 for PEP-1. The IC 50 of peptide inhibition is measured at a substrate concentration of 100 μM RBG (resorufin β -D-galactopyranoside) and β-Gal concentration of 150 μg/L, 25 °C. All tests included three replicates. Error bar: range of data.
The IC50 of each inhibitor was determined by fitting the concentration vs. inhibition curve to the function ‘Fit LogIC50’ as defined in the program GraphPad Prism 7 using the fitting equation “Y=Bottom+(Top-Bottom)/(1+10^(X-LogIC50))”. The “Bottom” term was constrained to 1, which represents the maximal inhibition of 100%. The “Top” term was constrained to 0, which represents the minimal inhibition of 0%.
The enzyme inhibition was also quantitatively characterized using the inhibition percentage that was calculated using the following equation:
Inhibition Percentage = (Activity uninhibited – Activity inhibited)/ Activity uninhibited × 100%
(1 picture or pasted object on this page, not shown here)

[5] = 100 μM RBG, pH 7.4, 25 °C, 20 min preincubation
[6] = 100 μM RBG, 20 min preincubation

Row | Sequence | reduction of enzyme activity, combination with PEP-1 [4, 5] | reduction of enzyme activity, NEW peptide alone [4, 6] | other results
1 | ESVPTDLPMDTMEGKNWGSC [NEG, negatively-charged negative control peptide] |  |  | binding to crosslinked PEP-1–β-gal complex on microarray (in words) [1]: did not show strong binding; activity of inhibited PEP-1–β-Gal complex, % of uninhibited enzyme [2]: ~45%; binding to β-Gal on microarray (in words) [3]: neither bound to β-Gal; inhibition of β-Gal activity, NEG combined with PEP-1 ([4]; 10 μM NEG + 2 μM PEP-1): 24%; inhibition of β-Gal, NEG combined with PEP-1 (in words) ([4]; 100 μM NEG + 2 μM PEP-1): almost lost the ability to inhibit β-Gal
2 | GVSHLHWIKMLNETTVMGSC [NEW-1] | ~ 70% | less than 10% | 
3 | HISPQHMMAYSPKAFDYGSC [NEW-2] | ~ 73% | ~ 12% | 
4 | MHNHAFNDNHGRGPTAWGSC [NEW-4] | 91% | ~ 26% | 
5 | RVFKRKRWLHVSRYYFGSC [PEP-1] |  |  | IC50 [4]: ~1.6 µM; reduction of enzyme activity, PEP-1 by itself ([4]; 2 μM PEP-1 alone, 100 μM RBG, pH 7.4, 25 °C, 20 min preincubation): ~ 57% and 57%
6 | YDTLHRNRQMMDWQFEPGSC [NEW-3] | ~ 86% | ~ 19% | 

From PMC5487955, “Microarray Selection of Cooperative Peptides for Modulating Enzyme Activities” (Microarrays, 2017)
